The record followed here is patent US12486274B2, “Substituted pyrazolo-pyrimidines and uses thereof” (Verge Analytics, Inc., priority 2020, dated 2025).

A value given as a limit tells only on which side of the number the result lay.

Full length human recombinant PIKFYVE, sequence (Q9Y2I7 whole entry, the tested form may be a part): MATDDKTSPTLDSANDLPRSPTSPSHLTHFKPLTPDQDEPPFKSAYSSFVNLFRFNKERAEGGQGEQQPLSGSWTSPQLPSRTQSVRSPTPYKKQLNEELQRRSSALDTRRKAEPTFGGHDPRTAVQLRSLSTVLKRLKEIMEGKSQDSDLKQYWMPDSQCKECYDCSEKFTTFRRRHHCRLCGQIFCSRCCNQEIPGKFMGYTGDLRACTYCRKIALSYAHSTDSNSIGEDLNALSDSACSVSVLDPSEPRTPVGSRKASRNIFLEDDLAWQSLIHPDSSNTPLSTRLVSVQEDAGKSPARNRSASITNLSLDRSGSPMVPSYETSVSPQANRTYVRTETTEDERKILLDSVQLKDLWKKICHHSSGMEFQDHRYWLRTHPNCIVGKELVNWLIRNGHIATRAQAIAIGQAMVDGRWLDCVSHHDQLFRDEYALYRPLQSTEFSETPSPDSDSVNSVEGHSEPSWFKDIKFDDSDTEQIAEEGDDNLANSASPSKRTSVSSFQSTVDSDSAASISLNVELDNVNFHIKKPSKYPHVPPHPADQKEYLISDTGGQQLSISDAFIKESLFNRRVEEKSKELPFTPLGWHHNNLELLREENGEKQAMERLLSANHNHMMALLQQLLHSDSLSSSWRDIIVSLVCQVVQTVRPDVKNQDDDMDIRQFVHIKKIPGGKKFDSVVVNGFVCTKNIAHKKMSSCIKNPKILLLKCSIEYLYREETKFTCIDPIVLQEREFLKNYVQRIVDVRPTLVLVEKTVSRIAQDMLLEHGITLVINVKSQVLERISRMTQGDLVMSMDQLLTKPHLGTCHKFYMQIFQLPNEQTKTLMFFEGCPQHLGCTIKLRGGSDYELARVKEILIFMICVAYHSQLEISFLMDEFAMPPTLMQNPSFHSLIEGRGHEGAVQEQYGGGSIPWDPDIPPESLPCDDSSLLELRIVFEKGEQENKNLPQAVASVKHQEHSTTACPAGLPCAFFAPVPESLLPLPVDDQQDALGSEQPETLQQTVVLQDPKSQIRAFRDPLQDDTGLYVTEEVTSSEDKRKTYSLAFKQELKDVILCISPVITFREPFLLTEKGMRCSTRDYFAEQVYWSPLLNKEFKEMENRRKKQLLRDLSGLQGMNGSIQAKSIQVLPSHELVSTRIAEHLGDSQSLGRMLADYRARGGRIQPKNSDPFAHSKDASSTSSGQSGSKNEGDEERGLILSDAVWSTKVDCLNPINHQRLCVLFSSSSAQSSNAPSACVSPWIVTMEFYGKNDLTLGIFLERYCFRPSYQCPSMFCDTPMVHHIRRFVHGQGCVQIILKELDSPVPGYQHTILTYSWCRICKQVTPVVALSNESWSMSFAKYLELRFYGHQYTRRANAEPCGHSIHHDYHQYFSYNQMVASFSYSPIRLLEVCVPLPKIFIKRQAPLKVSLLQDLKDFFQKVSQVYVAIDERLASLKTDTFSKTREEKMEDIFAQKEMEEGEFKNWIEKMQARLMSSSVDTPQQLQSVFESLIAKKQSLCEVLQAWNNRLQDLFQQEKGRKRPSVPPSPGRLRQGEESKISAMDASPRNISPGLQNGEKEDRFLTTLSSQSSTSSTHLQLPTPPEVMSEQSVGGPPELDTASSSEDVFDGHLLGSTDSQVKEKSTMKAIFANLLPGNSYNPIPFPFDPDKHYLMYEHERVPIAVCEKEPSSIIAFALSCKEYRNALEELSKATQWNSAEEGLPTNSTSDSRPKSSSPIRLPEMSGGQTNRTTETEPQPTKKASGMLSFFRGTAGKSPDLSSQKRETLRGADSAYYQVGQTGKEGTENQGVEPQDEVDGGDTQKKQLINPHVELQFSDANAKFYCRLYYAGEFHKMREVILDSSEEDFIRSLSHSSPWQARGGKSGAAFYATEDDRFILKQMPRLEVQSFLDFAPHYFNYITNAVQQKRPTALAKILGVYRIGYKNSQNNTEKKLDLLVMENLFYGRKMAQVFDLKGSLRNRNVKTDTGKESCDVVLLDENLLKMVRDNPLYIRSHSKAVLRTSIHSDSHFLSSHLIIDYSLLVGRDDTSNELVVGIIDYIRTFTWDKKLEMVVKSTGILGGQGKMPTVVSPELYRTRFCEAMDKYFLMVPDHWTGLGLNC

The experiment addresses Full length human recombinant PIKFYVE (Homo sapiens (Human), UniProt Q9Y2I7). The experiment can be described thus: Inhibition of PIKfyve (microfluidic electrophoresis kinase assay). Conditions: 2 nM enzyme, PI3P/PS substrate, 3 h at room temperature, 12 concentrations. In kind it is biochemical. The protocol: Full length human recombinant PIKFYVE expressed in baculovirus expression system as N-terminal GST-fusion protein (265 kDa) was obtained from Carna Biosciences (Kobe, Japan). The kinase substrate was prepared by mixing and sonicating fluorescently-labeled phosphatidylinositol 3-phosphate (PI3P) with phospho-L-serine (PS) at a 1:10 ratio in 50 mM HEPES buffer pH7.5.
The kinase reactions were assembled in 384-well plates (Greiner) in a total volume of […] as follows. Kinase protein was pre-diluted in an assay buffer comprising 25 mM HEPES, pH 7.5, 1 mM DTT, 2.5 mM MgCl2, and 2.5 mM MnCl2, and 0.005% Triton X-100, and dispensed into a 384-well plate (10 μL per well). Test compounds were serially pre-diluted in DMSO and added to the protein samples by acoustic dispensing (Labcyte Echo). The concentration of DMSO was equalized to 1% in all samples. All test compounds were tested at 12 concentrations. Apilimod was used as a reference compound and was tested in identical manner in each assay plate. Control samples (0%-inhibition, in the absence of inhibitor, DMSO only) and 100%-inhibition (in the absence of enzyme) were assembled in replicates of four and were used to calculate %-inhibition in the presence of compounds. The reactions were initiated by addition of 10 μL of 2× PI3P/PS substrate supplemented with ATP. The final concentration of enzyme was 2 nM, the final concentration of ATP was 10 mM, and the final concentration of PI3P/PS substrate was 1 μM (PI3P). The kinase reactions were allowed to proceed for 3 h at room temperature. Following incubation, the reactions were quenched by addition of […] of termination buffer (100 mM HEPES, pH 7.5, 0.01% Triton X-100, 20 mM EDTA). Terminated plates were analyzed on a microfluidic electrophoresis instrument (Caliper LabChip® 3000, Caliper Life Sciences/Perkin Elmer). The change in the relative fluorescence intensity of the PI (3) P substrate and PI (3,5) P product peaks was measured. The activity in each test sample was determined as the product to sum ratio (PSR): P/(S+P), where P is the peak height of the product, and S is the peak height of the substrate. Percent inhibition (Pinh) was determined using the following equation: Pinh=(PSR0% inh−PSRcompound)/(PSR0% inh−PSR100% inh)*100 in which PSRcompound is the product/sum ratio in the presence of compound, PSR0% inh is the product/sum ratio in the absence of compound, and the PSR100% inh is the product/sum ratio in the absence of the enzyme.
As to `O=C(NC1CCCC1)c1cc2nc(-n3ccc(-c4ccccc4)n3)cc(N3CCOCC3)n2n1` [Compound 77, N-cyclopentyl-7-morpholino-5-(3-phenylpyrazol-1-yl)pyrazolo[1,5-a]pyrimidine-2-carboxamide], the IC50 stood at 184 nM.
With `c1ccc(-c2cnn(-c3cc(N4CCOCC4)n4nc(-c5ccccn5)cc4n3)c2)cc1` [Compound 78, 4-[5-(4-phenylpyrazol-1-yl)-2-(2-pyridyl)pyrazolo[1,5-a]pyrimidin-7-yl]morpholine], the IC50 is 441 nM.
Then `c1ccc(-c2cnn(-c3cc(N4CCOCC4)n4nc(-c5cccnc5)cc4n3)c2)cc1` [Compound 79, 4-[5-(4-phenylpyrazol-1-yl)-2-(3-pyridyl)pyrazolo[1,5-a]pyrimidin-7-yl]morpholine], with 333 nM.
`CC(C)NC(=O)c1cc2nc(-n3cc(-c4ccccc4)cn3)cc(N3CCOCC3)n2n1` [Compound 80, N-isopropyl-7-morpholino-5-(4-phenylpyrazol-1-yl)pyrazolo[1,5-a]pyrimidine-2-carboxamide]: the IC50 turned out to be 4390 nM.
For `c1ccc(-c2ccn(-c3cc(N4CCOCC4)n4nc(-c5cnccn5)cc4n3)n2)cc1` [Compound 82, 4-[5-(3-phenylpyrazol-1-yl)-2-pyrazin-2-yl-pyrazolo[1,5-a]pyrimidin-7-yl]morpholine], the half-maximal inhibitory concentration (IC50) stood at 169 nM.
Then `Cc1cccc(-c2ccn(-c3cc(N4CCOCC4)n4nc(-c5cc(C)nn5CCN(C)C)cc4n3)n2)c1` [Compound 83, N,N-dimethyl-2-[3-methyl-5-[7-morpholino-5-[3-(m-tolyl)pyrazol-1-yl]pyrazolo[1,5-a]pyrimidin-2-yl]pyrazol-1-yl]ethanamine], with 22.6 nM.
Consider `Cc1cccc(-c2ccn(-c3cc(N4CCOCC4)n4nc(-c5cc(C)nn5C)cc4n3)n2)c1` [Compound 84, 4-[2-(2,5-dimethylpyrazol-3-yl)-5-[3-(m-tolyl)pyrazol-1-yl]pyrazolo[1,5-a]pyrimidin-7-yl]morpholine], for which the IC50 amounted to 2.6 nM.
Take `Cc1cc(-c2cc3nc(-n4ccc(-c5ccccc5)n4)cc(N4CCOCC4)n3n2)n(C)n1` [Compound 85, 4-[2-(2,5-dimethylpyrazol-3-yl)-5-(3-phenylpyrazol-1-yl)pyrazolo[1,5-a]pyrimidin-7-yl]morpholine]: the concentration for half-maximal inhibition (IC50) stood at 215 nM.
Consider `Cc1cc(-c2cc3nc(-n4ccc(-c5ccccc5)n4)cc(N4CCOCC4)n3n2)nn1C` [Compound 86, 4-[2-(1,5-dimethylpyrazol-3-yl)-5-(3-phenylpyrazol-1-yl)pyrazolo[1,5-a]pyrimidin-7-yl]morpholine], for which the IC50 amounted to 32.2 nM.
Take `Cc1cccc(-c2ccn(-c3cc(N4CCOCC4)n4nc(-c5cc(C)n(C)n5)cc4n3)n2)c1` [Compound 87, 4-[2-(1,5-dimethylpyrazol-3-yl)-5-[3-(m-tolyl)pyrazol-1-yl]pyrazolo[1,5-a]pyrimidin-7-yl]morpholine]: the IC50 amounted to 0.9 nM.
Turning to `c1ccc(-c2ccn(-c3cc(N4CCOCC4)n4nc(-c5cccnn5)cc4n3)n2)cc1` [Compound 88, 4-[5-(3-phenylpyrazol-1-yl)-2-pyridazin-3-yl-pyrazolo[1,5-a]pyrimidin-7-yl]morpholine], the IC50 came to 208 nM.
Then `COC(=O)NCc1cc2nc(-n3ccc(-c4ccccc4)n3)cc(N3CCOCC3)n2n1` [Compound 89, methyl N-[[7-morpholino-5-(3-phenylpyrazol-1-yl)pyrazolo[1,5-a]pyrimidin-2-yl]methyl]carbamate], with 1400 nM; and `CCC(=O)NCc1cc2nc(-n3ccc(-c4ccccc4)n3)cc(N3CCOCC3)n2n1` [Compound 90], with 2160 nM.
Then `Cc1cccc(-c2ccn(-c3cc(N4CCOCC4)n4nc(-c5cc(C)n(CCN(C)C)n5)cc4n3)n2)c1` [Compound 91, N,N-dimethyl-2-[5-methyl-3-[7-morpholino-5-[3-(m-tolyl)pyrazol-1-yl]pyrazolo[1,5-a]pyrimidin-2-yl]pyrazol-1-yl]ethanamine], with 9.4 nM; and `Cc1cc(-c2cc3nc(-n4ccc(-c5ccccn5)n4)cc(N4CCOCC4)n3n2)nn1CCN(C)C` [Compound 92, N,N-dimethyl-2-[5-methyl-3-[7-morpholino-5-[3-(2-pyridyl)pyrazol-1-yl]pyrazolo[1,5-a]pyrimidin-2-yl]pyrazol-1-yl]ethanamine], with 5240 nM.
Consider `Cc1cc(-c2cc3nc(-n4ccc(-c5ccncc5)n4)cc(N4CCOCC4)n3n2)nn1CCN(C)C` [Compound 93, N,N-dimethyl-2-[5-methyl-3-[7-morpholino-5-[3-(4-pyridyl)pyrazol-1-yl]pyrazolo[1,5-a]pyrimidin-2-yl]pyrazol-1-yl]ethanamine], for which the IC50 was more than 10000 nM.
Then `Cc1cccc(-c2ccn(-c3cc(N4CCOCC4)n4nc(-c5cc(C)n(CCN(C)C)n5)cc4n3)n2)n1` [Compound 94, N,N-dimethyl-2-[5-methyl-3-[5-[3-(6-methyl-2-pyridyl)pyrazol-1-yl]-7-morpholino-pyrazolo[1,5-a]pyrimidin-2-yl]pyrazol-1-yl]ethanamine], with 4390 nM; and `Cc1ccnc(-c2ccn(-c3cc(N4CCOCC4)n4nc(-c5cc(C)n(CCN(C)C)n5)cc4n3)n2)c1` [Compound 95, N,N-dimethyl-2-[5-methyl-3-[5-[3-(4-methyl-2-pyridyl)pyrazol-1-yl]-7-morpholino-pyrazolo[1,5-a]pyrimidin-2-yl]pyrazol-1-yl]ethanamine], with 350 nM.
As to `Cc1cc(-c2ccn(-c3cc(N4CCOCC4)n4nc(-c5cc(C)n(CCN(C)C)n5)cc4n3)n2)ccn1` [Compound 96, N,N-dimethyl-2-[5-methyl-3-[5-[3-(2-methyl-4-pyridyl)pyrazol-1-yl]-7-morpholino-pyrazolo[1,5-a]pyrimidin-2-yl]pyrazol-1-yl]ethanamine], the IC50 is more than 10000 nM.
With `Cc1cc(-c2cc3nc(-n4ccc(-c5cccc(Cl)c5)n4)cc(N4CCOCC4)n3n2)nn1CCN(C)C` [Compound 97, 2-[3-[5-[3-(3-chlorophenyl)pyrazol-1-yl]-7-morpholino-pyrazolo[1,5-a]pyrimidin-2-yl]-5-methyl-pyrazol-1-yl]-N,N-dimethyl-ethanamine], the IC50 was determined as 126 nM.
Then `Cc1cc(-c2cc3nc(-n4ccc(-c5ccccc5)n4)cc(N4CCOCC4)n3n2)nn1CCN(C)C` [Compound 99, N,N-dimethyl-2-[5-methyl-3-[7-morpholino-5-(3-phenylpyrazol-1-yl)pyrazolo[1,5-a]pyrimidin-2-yl]pyrazol-1-yl]ethanamine], with 127 nM.
Regarding `COc1cccc(-c2ccn(-c3cc(N4CCOCC4)n4nc(-c5cc(C)n(CCN(C)C)n5)cc4n3)n2)c1` [Compound 100, 2-[3-[5-[3-(3-methoxyphenyl)pyrazol-1-yl]-7-morpholino-pyrazolo[1,5-a]pyrimidin-2-yl]-5-methyl-pyrazol-1-yl]-N,N-dimethyl-ethanamine], the IC50 stood at 8.4 nM.
As for `Cn1ccc(-c2cc3nc(-n4ccc(-c5cccc(Cl)c5)n4)cc(N4CCOCC4)n3n2)n1` [Compound 101, 4-[5-[3-(3-chlorophenyl)pyrazol-1-yl]-2-(1-methylpyrazol-3-yl)pyrazolo[1,5-a]pyrimidin-7-yl]morpholine], the half-inhibitory concentration (IC50) was 41 nM.
Then `Cc1cncc(-c2ccn(-c3cc(N4CCOCC4)n4nc(-c5cccnc5)cc4n3)n2)c1` [Compound 102, 4-[5-[3-(5-methyl-3-pyridyl)pyrazol-1-yl]-2-(3-pyridyl)pyrazolo[1,5-a]pyrimidin-7-yl]morpholine], with more than 10000 nM; and `Cc1cc(-c2ccn(-c3cc(N4CCOCC4)n4nc(-c5cccnc5)cc4n3)n2)ccn1` [Compound 103, 4-[5-[3-(2-methyl-4-pyridyl)pyrazol-1-yl]-2-(3-pyridyl)pyrazolo[1,5-a]pyrimidin-7-yl]morpholine], with more than 10000 nM; and `Nc1nccc(-c2cc3nc(-n4ccc(-c5ccccc5)n4)cc(N4CCOCC4)n3n2)n1` [Compound 104, 4-[7-morpholino-5-(3-phenylpyrazol-1-yl)pyrazolo[1,5-a]pyrimidin-2-yl]pyrimidin-2-amine], with 106 nM.
Then `Clc1cccc(-c2ccn(-c3cc(N4CCOCC4)n4nc(-c5cccnc5)cc4n3)n2)c1` [Compound 105, 4-[5-[3-(3-chlorophenyl)pyrazol-1-yl]-2-(3-pyridyl)pyrazolo[1,5-a]pyrimidin-7-yl]morpholine], with more than 10000 nM; and `Brc1cccc(-c2ccn(-c3cc(N4CCOCC4)n4nc(-c5cccnc5)cc4n3)n2)c1` [Compound 106, 4-[5-[3-(3-bromophenyl)pyrazol-1-yl]-2-(3-pyridyl)pyrazolo[1,5-a]pyrimidin-7-yl]morpholine], with 19.9 nM.

Broadly, the IC50 is the point on the concentration scale where inhibition reaches its midpoint.
